Experimental data from paper PMC5077133, “Towards Development of Small Molecule Lipid II Inhibitors as Novel Antibiotics” (PLoS ONE, 2016).

Legend:
[1] = test system: HeLa cells; assay: Cytotoxicity against mammalian cells (MTS assay); assay type: cell-based
Method: The cytotoxicity concentration of antibacterial compounds that produces half maximal decrease in viability (CC50) against mammalian cells (HeLa, ATCC CCL-2.2) was determined as described. The effect of compounds on HeLa cell viability was assessed in triplicate by measuring the mitochondrial activity using MTS assays according to the manufacturer’s instructions (Cell Titer 96 proliferation assay, Promega). The cells were incubated for 72 hours in RPMI1640 medium containing the compounds at final concentrations ranging from 64 to 0.125 μg/ml. CC50 was determined using a standard curve of serially diluted untreated cells in each experiment.

[2] = test system: A. baumanii ATCC 19606; assay: Antibacterial activity (MIC, broth dilution); assay type: cell-based, Acinetobacter baumanii; settings: CLSI, in µg/mL
Text: Staphylococcus aureus ATCC 29213, Escherichia coli ATCC 25922, Enterococcus faecalis ATCC 29212, Streptococcus pneumonia ATCC 49619 and Acinetobacter baumanii ATCC 19606 were obtained from Microbiologics (St. Cloud, MN). E. faecalis ATCC 51575, ATCC 51299 and REMEL C99707 and E. faecium ATCC 51559 (MDR), REMEL IH79985 and REMEL C110914 were generously provided by the Laboratory of Pathology, University of Maryland Baltimore School of Medicine. Unless stated otherwise, chemicals and reagents were purchased from Sigma.
(§1) Determination of the Minimal Inhibitory Concentrations (MIC) by dilution was carried out by broth dilution according to CLSI standards.

[3] = Lipid II binding by Surface Plasmon Resonance; settings: SPR, immobilized 3-Lipid II, 25°C
Method: Short-chain water-soluble Lipid II containing a lipid tail of three isoprene units was generated and purified essentially as described. Typically, M. flavus vesicles (120 μmol lipid-Pi) were incubated together with 500 μmol UDP-GlcNAc, 500 μmol UDP-MurNAC-pentapeptide and 400 μmol farnesyl phosphate in 100 mM Tris-HCl pH 8.0, 5 mM MgCl2. The incubation lasted two hours at room temperature for 3-P. The synthesis of 3-Lipid II was followed using RP-8 reversed phase TLC (Merck) developed in 75% methanol. For purification, the membranes were removed by centrifugation at 40,000 x g and the supernatant was collected and loaded on a C18 HPLC column and eluted with a linear gradient from 50 mM ammonium bicarbonate to 100% methanol in 30 minutes. Farnesyl-Lipid II (3-Lipid II) eluted at approximately 60% methanol. Its identity was confirmed by mass spectroscopy. Surface Plasmon Resonance binding experiments were carried out on a BIAcore T100 system (BIAcore Inc., Piscataway, NY) at 25°C. The assay buffer was 10 mM HEPES, 150 mM NaCl, 0.05% surfactant P20, pH 7.4 (± 3 mM EDTA) supplemented with 10% DMSO. 3-Lipid II (50 RUs) was immobilized on CM5 sensor chips using the amine-coupling chemistry recommended by the manufacturer. For initial determination of binding, compounds were introduced into the flow-cells (30 μl/min) in the running buffer at 10 μM. Resonance signals were corrected for nonspecific binding by subtracting the background of the control flow-cell. After each analysis, the sensor chip surfaces were regenerated with 50 mM NaOH for 30 s at a flow rate 100 μl/min, and equilibrated with the buffer prior to next injection. For binding kinetics studies, binding isotherms were analyzed with manufacturer-supplied software for BIAcore T100.

[4] = test system: P. aeruginosa PA01; assay: Antibacterial activity (MIC, broth dilution); assay type: cell-based; settings: CLSI
Method: as §1

[5] = test system: S. aureus MRSA 1094; assay: Antibacterial activity (MIC, broth dilution); assay type: cell-based; settings: CLSI
Method: as §1

[6] = test system: E. faecium F118 (VRE); assay: Antibacterial activity (MIC, broth dilution); assay type: cell-based; settings: CLSI, in µg/mL
Method: as §1

[7] = test system: K. pneumoniae NR-15411 (KPC); assay: Antibacterial activity (MIC, broth dilution); assay type: cell-based; settings: CLSI
Method: as §1

[8] = test system: E. aerogenes ATCC 13048; assay: Antibacterial activity (MIC, broth dilution); assay type: cell-based; settings: CLSI
Method: as §1

[9] = test system: E. faecium EF1509 (VRE); assay: Antibacterial activity (MIC, broth dilution); assay type: cell-based; settings: CLSI, in µg/mL
Method: as §1

[10] = test system: E. cloacae ATCC 13047; assay: Antibacterial activity (MIC, broth dilution); assay type: cell-based; settings: CLSI
Method: as §1

[11] = test system: K. pneumoniae NR-15410 (KPC); assay: Antibacterial activity (MIC, broth dilution); assay type: cell-based; settings: CLSI
Method: as §1

[12] = test system: P. aeruginosa X13273; assay: Antibacterial activity (MIC, broth dilution); assay type: cell-based; settings: CLSI, in µg/mL
Method: as §1

[13] = test system: P. aeruginosa ATCC 27853; assay: Antibacterial activity (MIC, broth dilution); assay type: cell-based; settings: CLSI
Method: as §1

[14] = test system: S. aureus HFH-30123 (MRSA); assay: Antibacterial activity (MIC, broth dilution); assay type: cell-based; settings: CLSI
Method: as §1

SMILES | CC50% (72 h HeLa cells) [1] | Antibacterial activity (MIC) A. baumanii ATCC 19606 [2] | Kd [3] [µM] | Antibacterial activity (MIC) P. aeruginosa PA01 [4] [µg/mL] | Antibacterial activity (MIC) S. aureus MRSA 1094 [5] [µg/mL] | Antibacterial activity (MIC) E. faecium F118 (VRE) [6] | Antibacterial activity (MIC) K. pneumoniae NR-15411 (KPC) [7] [µg/mL] | Antibacterial activity (MIC) E. aerogenes ATCC 13048 [8] [µg/mL] | Antibacterial activity (MIC) E. faecium EF1509 (VRE) [9] | Antibacterial activity (MIC) E. cloacae ATCC 13047 [10] [µg/mL] | Antibacterial activity (MIC) K. pneumoniae NR-15410 (KPC) [11] [µg/mL] | Antibacterial activity (MIC) P. aeruginosa X13273 [12] | Antibacterial activity (MIC) P. aeruginosa ATCC 27853 [13] [µg/mL] | Antibacterial activity (MIC) S. aureus HFH-30123 (MRSA) [14] [µg/mL]
CCc1ccc(-c2cc(/C=C/c3cn(C)c4ccccc34)[o+]c(-c3ccc(CC)cc3)c2)cc1.F[B-](F)(F)F [6jc66-2] | 1.42 | 64 | 1.6 ± 0.2 | ≥ 64 | 4 | 5.66 | ≥ 64 | ≥ 64 | 4 | ≥ 64 | 64 | >=64 | ≥ 64 | 4
Cn1cc(/C=C/c2cc(-c3ccc(C(C)(C)C)cc3)cc(-c3ccc(C(C)(C)C)cc3)[o+]2)c2ccccc21.F[B-](F)(F)F [6jc66-3] | 5.68 | >=64 | 60 ± 11 | ≥ 64 | 8 | 11.31 | ≥ 64 | ≥ 64 | 4 | ≥ 64 | ≥ 64 | >=64 | ≥ 64 | 8
Cc1ccc(-c2cc(/C=C/c3cn(C)c4ccccc34)[o+]c(-c3ccc(C)c(C)c3)c2)cc1C.F[B-](F)(F)F [6jc66-4] | 0.92 | 64 | 27.9 ± 2 | ≥ 64 | 2 | 4 | ≥ 64 | ≥ 64 | 2 | ≥ 64 | 64 | >=64 | ≥ 64 | 2
Cc1ccc(-c2cc(/C=C/c3c[nH]c4ccccc34)[o+]c(-c3ccc(C)cc3)c2)cc1.F[B-](F)(F)F [6jc-53-2] | 1.12 | >=64 | 10 ± 3 | ≥ 64 | 2 | 5.657 | ≥ 64 | ≥ 64 | 8 | ≥ 64 | ≥ 64 | >=64 | ≥ 64 | 4
C(=C\c1cc(-c2ccccc2)cc(-c2ccccc2)[o+]1)/c1cc2c3c(c1)CCCN3CCC2.F[B-](F)(F)F [6jc-58] | <.78125 | 8 | 17 ± 4 | 64 | 1.41 | 4 | 64 | 32 | 4 | 64 | 45.3 | 32 | 64 | 2
Cc1ccc(-c2cc(/C=C/c3ccc(N(C)C)cc3)[o+]c(-c3ccc(C)c(C)c3)c2)cc1C.F[B-](F)(F)F [6jc-59-1] | <.78125 | >=64 | 1.9 ± 0.3 | ≥ 64 | 2 | 4 | ≥ 64 | ≥ 64 | 4 | ≥ 64 | ≥ 64 | >=64 | ≥ 64 | 2
Cc1ccc(-c2cc(/C=C/c3c[nH]c4ccccc34)[o+]c(-c3ccc(C)c(C)c3)c2)cc1C.F[B-](F)(F)F [6jc-59-3] | 1.35 | >=64 | 27.9 ± 3 | ≥ 64 | 4 | 8 | ≥ 64 | ≥ 64 | 5.657 | ≥ 64 | ≥ 64 | >=64 | ≥ 64 | 4
